Source: a melting point compilation (Tetko et al.; mined from patent text by program, amines drawn as free bases though some values may be those of a salt)

SMILES	melting point
Cc1cccc(NC(=O)NC2N=C(c3ccccc3)c3ccccc3N(Cc3nccc4ccccc34)C2=O)c1 (racemic)	218 to 221 °C
Cc1oc2ccc(C3CC(=O)NC(=O)C3)cc2c1C	183 to 185 °C
CCCCCCC(=O)Nc1cccc2c1C1(COc3cc4c(cc31)OCCO4)C(=O)N2C (stereo unspecified)	123 to 124 °C
COC(=O)c1ccc2ncc(C(=O)NCc3ccc(Cl)cc3)c(O)c2c1	290 to 292 °C
NS(=O)(=O)N1CCC(CCNC(=O)c2cc(Cl)ccn2)CC1	186 to 187 °C
OC[C@H]1CCCN1c1nc2c(-c3nc(C4CC4)no3)ncn2c2cccc(Cl)c12	220 to 221 °C
O=C(C(=O)c1cccc(OCc2ccccc2)c1)c1cc[nH]c1	124 to 125 °C
CCc1nc2ccc(Br)cc2c2ccc(F)cc12	111 °C
Cc1c(CC(=O)O)c2cc(OCc3csc(-c4ccccc4)n3)ccc2n1Cc1csc(-c2ccc(Cl)cc2)n1	178 to 180 °C
CCOC(=O)c1ccc(-c2nn(Cc3ccc(Cl)s3)c3ccccc23)o1	124 to 126 °C
CCCCCCCCCCCCCCC(=O)NCCCN(C)C	46 to 48 °C
CC(=NC(C#N)=C(N)C#N)c1cccs1	177 to 179 °C
COC1(c2cc(F)cc(Sc3ccc(C(F)(F)c4ccc(F)cc4)cc3)c2)CCOCC1	54 to 57 °C
CN(C)Cc1cnc(NC(=O)[C@H](CC2CCCC2)c2ccc(S(C)(=O)=O)c(Cl)c2)cn1	88 to 91.5 °C
CCCc1c(/C=C/c2cc(OC)cc(OC)c2)nc2ccc(C(=O)O)cn2c1=O	268 to 270 °C
COc1cc2c(cc1O)CCN(Cc1ccc(OC)c(OC)c1OC)C2	65 to 66 °C
CC(C)Oc1ccc(C(=O)n2nc(Nc3cccc(N4CCCCC4)c3)nc2N)cc1	121 to 124 °C
CC(=NOCCOc1ccc(CC2SC(=O)NC2=O)cc1)c1ccc(-c2ccccc2)cn1 (stereo unspecified)	136 to 138 °C
CCOC(=O)C1=Cc2cc(S(=O)(=O)Cl)ccc2OC1C(F)(F)F (stereo unspecified)	97.2 to 98.4 °C
Cn1ncc(C(=O)N2CCOCC2)c1C(=O)Nc1ccc2nc(-c3ccccc3)nn2c1	183 to 185 °C
COc1cc(C(=O)CS(C)=O)c(N)c(OC)c1OC (stereo unspecified)	102 to 104 °C
CON(C(=O)c1cn(C)nc1C(F)F)C(C)Cc1c(Cl)cc(Cl)cc1Cl (stereo unspecified)	110 to 112 °C
O=[N+]([O-])c1ccc(CNc2cccc(S(=O)(=O)O)c2)cc1	> 275 °C
Cc1cccnc1-c1cccc(OC2SCC(O)C(O)C2O)c1 (stereo unspecified)	97 to 109 °C

SMILES	melting point
O=C1CC(NC(=O)c2cccnc2)CCCN1 (stereo unspecified)	220 to 221 °C
CC1(C2=C(O)C(=O)c3ccccc3C2=O)CCCCC1	79 °C
O=C1CC=C(c2ccc(Cl)cc2)CC1	59 to 62 °C
Cc1cc(I)ccc1Nc1c(-c2nnc(S)o2)ccc(F)c1F	232 to 233 °C
C=CCN1CCC(=O)N(c2c(C)cccc2C)C1=S	88 to 91 °C
COc1cc(CNc2n[nH]c3ncnc(Nc4cccc(Cl)c4)c23)cc(OC)c1	208 to 209 °C
CC(C(=O)O)c1c(C(=O)c2ccccc2)[nH]c2cc(Cl)ccc12 (stereo unspecified)	193 to 196 °C
CCC[C@H]1CC[C@H](c2ccc(CCC(F)F)cc2)CC1	12 °C
CC(C)C(=O)Oc1ccc(C(=O)c2ccc(OC(=O)C(C)C)cc2)cc1	144 °C
CCCNC(=O)N1N=C(c2ccc(N)cc2)c2cc(Cl)ccc2CC1C (stereo unspecified)	88 to 90 °C
COc1ccc2c(c1)N(Cc1ccccc1)C(=O)C1CCCC1=N2 (stereo unspecified)	105 to 107 °C
CCOC(=O)C1=C(C)NC(=S)N(S(=O)(=O)c2ccccc2)C1c1cccc([N+](=O)[O-])c1 (stereo unspecified)	162 to 164 °C
CN1CCN(CCCc2c[nH]c(-c3ccc(F)cc3)c2-c2ccncc2)CC1	190 to 192 °C
COc1ccc(C2(C#Cc3cc(C#N)cc(C#N)c3)CCC(=O)CC2)cc1OC1CCCC1	148 °C
CON=C1CCS(=O)(=O)c2c(C)cc(C(=O)O)c(C)c21	169 to 171 °C
CN1CCC(Oc2ccc([N+](=O)[O-])cc2)(c2ccccc2)CC1	136 to 138 °C
C=CCc1cc(OCC)c2c(c1OC)S(=O)(=O)N(Cc1ccccc1)C2=O	92 to 94 °C
CCCCc1ncc(/C=C(\Cc2cc(OC)cs2)C(=O)O)n1Cc1ccccc1Cl	170 to 171 °C
CSc1ccc(C(C)Nc2nc(NC(C)=O)nc(C(F)(F)F)n2)cc1 (stereo unspecified)	132 °C
CN(C)C(=O)NS(=O)(=O)C=Cc1ccccc1	160 to 162 °C
COc1ccc(N2CCN(c3c(C)c(C)c4c(c3C)C(O)(c3ccc(F)cc3)C(C)(C)O4)CC2)cc1 (stereo unspecified)	142 to 144 °C
CC(C)(C)c1cc(/C=C/c2nnc(S(C)(=O)=O)s2)cc(C(C)(C)C)c1O	235 °C
COc1ccc(-c2sc(-c3ccc(OC)s3)c3c2OCCO3)s1	101 °C
CCc1cc2c(s1)N=C(NNC(=O)NC)CN=C2c1ccccc1Cl	213 to 215 °C

SMILES	melting point
ClCN1C=C(Cl)C(Cl)=CN1	69 to 70 °C
CC(=O)N1Cc2c(-c3noc(C4CC4)n3)ncn2-c2cccc(F)c21	208 to 210 °C
C[C@H](C(=O)N[C@@H](COC(=O)C(C)(C)C)Cc1ccccc1)c1ccc(NS(C)(=O)=O)c(F)c1	117 to 119 °C
O=C(NN1CCCCC1)C1CN(c2ccc(Cl)cc2)C(c2ccc(Cl)cc2Cl)=N1 (stereo unspecified)	113 to 116 °C
COCOC(c1cc(CBr)ccc1I)(C(F)(F)F)C(F)(F)F	93 °C
CC(C)N(c1ccc(C#N)cc1[N+](=O)[O-])S(=O)(=O)c1ccc(Cl)cc1	168 °C
CCCCCCNC(=O)[C@@H](NC(=O)[C@H](CC(C)C)NC(=O)OC(C)(C)C)C(C)C	115 to 116 °C
CCCCOc1cc(/C=C(\OCC)C(=O)O)ccc1OCCc1ccc(OS(C)(=O)=O)c(Cl)c1	113 °C
CC(C)Sc1cc(O)c(N)c(C#N)c1	145 to 146 °C
CCOC(=O)c1c(SC)nc(-c2ccc(SC)cc2)n(-c2ccc(C)cc2)c1=O	153 to 155 °C
CCc1nnc(-c2ncc3[nH]c4cccc(OCc5ccccc5)c4c3c2COC)o1	230 °C
CC(C)CCCC(C)C1CCC2C3=CC=C4CC(OC(=O)c5ccccc5)CC(OC(=O)c5ccccc5)C4(C)C3CCC21C (stereo unspecified)	161 °C
CN(C)CCNC(=O)NCc1ccc2c(c1)-c1[nH]nc(-c3ccsc3)c1C2	247 to 249 °C
Cc1c2sc3ccccc3nc-2c2c(O)cccc2c1=O	226 to 228 °C
CCc1[nH]n(C2CCCC2)c2nc(C3CCNC4CCCCC43)nc(=O)c1-2 (stereo unspecified)	> 300 °C
CNC(=S)Nc1ccc(Oc2sc(C(N)=O)c3c2-c2c(cnn2C)CC3)cc1	199 to 201 °C
O=C(Nc1ccccc1)Oc1ccccc1	123 to 124 °C
COC(=O)NC1CCc2ccc(NC(=O)c3cccc(C)c3-c3ccc(C(F)(F)F)cc3)cc2CC1 (stereo unspecified)	190 to 193 °C
CCc1c(C)nc2cccc(C)n2c1=O	127 to 128 °C
CN1CCC(c2c[nH]c3ccc(NC(=O)c4cccc(F)c4)nc23)CC1	129 to 130 °C
NCCc1c(Br)[nH]c2ccc3c(=O)[nH]ccc3c12	252 °C
O=C(O)CSCCSc1cc(-c2ccccc2)c(O)c(-c2ccccc2)c1	125 °C
O=C(O)C1c2ccccc2CCc2cc(Br)ccc21 (stereo unspecified)	129 to 131 °C
